Measurements from ChEMBL document CHEMBL3297700, “Dose-dependent inhibition of BACE-1 by the monoterpenoid 2,3,4,4-tetramethyl-5-methylenecyclopent-2-enone in cellular and mouse models of Alzheimer's disease” (J Nat Prod, 2014).
pEC50, pKi: −log10 of the molar value.

Columns and labels:
Beta-secretase 1 [1] = biological target: T1, Beta-secretase 1 (Homo sapiens, UniProt P56817); experiment: Inhibition of recombinant BACE-1 (unknown origin) expressed in Escherichia coli measured for 5 to 30 mins by spectrofluorometric analysis; conditions: read-out: Ki(app)
T1 sequence (P56817 whole entry): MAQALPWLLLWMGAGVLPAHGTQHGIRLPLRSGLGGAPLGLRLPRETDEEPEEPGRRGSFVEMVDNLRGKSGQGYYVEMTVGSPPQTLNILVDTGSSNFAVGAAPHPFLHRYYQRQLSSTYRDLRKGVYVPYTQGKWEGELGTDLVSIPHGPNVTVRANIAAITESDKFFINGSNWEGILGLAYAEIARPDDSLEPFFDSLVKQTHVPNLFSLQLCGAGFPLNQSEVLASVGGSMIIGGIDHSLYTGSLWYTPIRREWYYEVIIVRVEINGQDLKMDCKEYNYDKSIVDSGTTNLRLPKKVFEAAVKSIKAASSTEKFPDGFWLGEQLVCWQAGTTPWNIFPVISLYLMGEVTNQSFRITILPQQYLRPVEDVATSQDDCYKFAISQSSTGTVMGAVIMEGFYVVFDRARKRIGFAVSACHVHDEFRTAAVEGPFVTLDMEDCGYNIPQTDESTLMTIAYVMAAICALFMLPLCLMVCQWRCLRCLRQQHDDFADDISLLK

Cathepsin D = Cathepsin D (Homo sapiens, UniProt P07339); experiment: Inhibition of cathepsin D in human liver using Lys-Lys-Pro-Ala-Glu-Phe-Phe-Ala-Leu-Lys as substrate by spectrofluorometric analysis; conditions: read-out: Ki(app)
Cathepsin D, sequence (P07339 65-162 limits assumed): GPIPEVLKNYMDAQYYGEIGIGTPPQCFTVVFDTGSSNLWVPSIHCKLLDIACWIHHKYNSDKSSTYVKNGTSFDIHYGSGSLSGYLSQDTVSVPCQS
Cathepsin D, sequence (P07339 169-412 limits assumed): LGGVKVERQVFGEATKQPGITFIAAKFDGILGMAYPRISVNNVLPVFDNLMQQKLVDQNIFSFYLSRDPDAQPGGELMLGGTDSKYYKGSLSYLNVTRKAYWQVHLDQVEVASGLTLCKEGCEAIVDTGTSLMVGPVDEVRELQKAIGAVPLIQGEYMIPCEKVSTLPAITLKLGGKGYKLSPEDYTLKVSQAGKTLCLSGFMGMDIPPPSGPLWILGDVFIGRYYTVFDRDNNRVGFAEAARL

Beta-secretase 1 [2] = biological target: Beta-secretase 1 (Cricetulus griseus, UniProt G3IAK4); experiment: Inhibition of BACE-1 in CHO cells expressing wild-type APP assessed as reduction in amyloid beta-40 production after 6 hrs by sandwich ELISA
Beta-secretase 1 (Cricetulus griseus, UniProt G3IAK4), sequence (G3IAK4 whole entry): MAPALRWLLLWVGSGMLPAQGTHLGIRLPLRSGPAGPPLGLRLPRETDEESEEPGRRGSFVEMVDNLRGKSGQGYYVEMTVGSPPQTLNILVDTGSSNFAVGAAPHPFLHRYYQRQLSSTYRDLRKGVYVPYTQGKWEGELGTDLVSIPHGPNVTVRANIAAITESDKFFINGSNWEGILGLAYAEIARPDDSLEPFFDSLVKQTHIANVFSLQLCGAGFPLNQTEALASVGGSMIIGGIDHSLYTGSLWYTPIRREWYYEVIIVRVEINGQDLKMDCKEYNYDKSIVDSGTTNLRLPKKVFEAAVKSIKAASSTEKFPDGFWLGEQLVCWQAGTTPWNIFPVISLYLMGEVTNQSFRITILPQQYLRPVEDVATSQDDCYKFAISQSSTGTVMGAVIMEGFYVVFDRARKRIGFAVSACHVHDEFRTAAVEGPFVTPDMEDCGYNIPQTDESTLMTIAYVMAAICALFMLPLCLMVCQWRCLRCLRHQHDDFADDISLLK

Beta-secretase 1 [3] = biological target: T1, Beta-secretase 1; experiment: Inhibition of BACE-1 in human SH-SY5Y cells expressing wild-type APP assessed as reduction in amyloid beta-40 production after 16 hrs by sandwich ELISA
[4] = Cytotoxicity against CHO cells expressing wild-type APP assessed as cell viability at 600 uM by neutral red uptake assay relative to control; assay type: cell-based, Cricetulus griseus; conditions: chinese hamster, read-out: Activity
[5] = Cytotoxicity against human SH-SY5Y cells expressing wild-type APP assessed as cell viability at 600 uM by trypan blue dye exclusion assay relative to control; assay type: cell-based; conditions: read-out: Activity
Mus musculus [6] = experiment: In vivo inhibition of BACE-1 in triple transgenic mouse model of Alzheimer's disease assessed as reduction in brain soluble amyloid beta-40 level administered intranasally qd for 4 days by ELISA; assay type: functional, organism-based
Mus musculus [7] = experiment: Toxicity in triple transgenic mouse model of Alzheimer's disease administered intranasally qd for 4 days; assay type: organism-based; conditions: in vivo, inhaled_or_intranasal, 96 h
Mus musculus [8] = experiment: In vivo inhibition of BACE-1 in triple transgenic mouse model of Alzheimer's disease assessed as reduction in brain insoluble amyloid beta-40 level administered intranasally qd for 4 days by ELISA; assay type: functional, organism-based

For `C=C1C(=O)C(C)=C(C)C1(C)C`, the pKi (Beta-secretase 1 [1]) was 3.38, the pKi (Cathepsin D) was 4.51 and the pEC50 (Beta-secretase 1 [2]) was 4.14. The pEC50 (Beta-secretase 1 [3]) was 3.66, the viability at 600 µM [4] was over 90% and the viability at 600 µM [5] was over 90%. For the same molecule, the inhibition (Mus musculus [6]) was “Dose-dependent effect”, the Activity (Mus musculus [7]) was “Non-toxic” and the inhibition (Mus musculus [8]) was “Dose-dependent effect”.
